Test system: voltage operated calcium channels (VOC)
Experiment: Inhibition of depolarization-induced 45Ca uptake into brain synaptosomes
Assay type: biochemical
Details: crude synaptosomal preparation (P₂) from male Wistar rat cerebral cortex; depolarization with 145 mM KCl; 15 s uptake; corrected for basal uptake; estimated from dose response curves
Excerpt: The pharmacological properties of the compounds of the invention can be illustrated by determining their capability to inhibit calcium uptake into brain synaptosomes.
Depolarization of neuronal membranes leads to an opening of socalled "voltage operated calcium channels" (VOC) in the membranes which allows a massive influx of calcium from the extracellular space. A crude synaptosomal preparation (socalled P₂ fraction) contains small vesicles surrounded by neuronal membrane and it is possible in such a preparation to study a depolarization-induced opening of VOC.
A male Wistar rat is decapitated and the cerebral cortex removed and homogenized in 10 ml. of ice-cold 0.32 M sucrose using a glass homogenizer with a teflon pestle. All subsequent steps for isolation of synaptosomes are done at 0-4°C. The homogenate is centrifuged at 1000 x g for 10 min and the resulting supernatant is re-centrifuged at 18000 x g for 20 min. This pellet (P₂) is resuspended in 0.32 M sucrose (5 ml per g of original tissue) with a teflon pestle.
The tubes are pre-incubated for 30 min on ice and then for 6 min at 37°C in a water bath.
The incubation is continued for 15 s.
The amount of radioactivity on the filter disc is determined by liquid scintillation spectrometry.
Test substances are dissolved in 10 ml of 48% ethanol at a concentration of 0.44 mg/ml. Dilution are made in 48% ethanol to give final concentrations of 0.1, 0.3, 1, 3 and 10 µg/ml. Experiments are performed in triplicate. Controls for depolarized and nondepolarized samples are included in the assay and test substances are only tested in depolarized samples.
The test value will be given as IC₅₀ (the concentration (µg/ml) of test substance which inhibit 50% of stimulated uptake of ⁴⁵Ca (uptake in depolarized samples corrected for basal uptake in nondepolarized samples )). The IC₅₀ value is estimated from dose response curves.

Row | Compound | IC₅₀ (concentration of test substance which inhibit 50% of stimulated uptake of ⁴⁵Ca)
1 | CCCCNCCC(Oc1ccc(C#N)cc1)c1cc(C)sc1C.O=C(O)C(=O)O (stereo not shown) [Compound 3, N-butyl-3-(4-cyanophenoxy)-3-(2,5-dimethyl-3-thienyl)propanamine, oxalate] | 6.6 µg/mL
2 | CCCCNCCC(Oc1ccc(C(F)(F)F)cc1)c1cc(C)sc1C.O=C(O)C(=O)O (stereo not shown) [Compound 4, N-butyl-3-(2,5-dimethyl-3-thienyl)-3-(4-trifluoromethylphenoxy)propanamine, oxalate] | 3.8 µg/mL
3 | Cc1coc(C)c1C(CCN(C)C)Oc1ccc(C(F)(F)F)cc1.O=C(O)C(=O)O (stereo not shown) [Compound 11, N,N-Dimethyl-3-(2,4-dimethyl-3-furyl)-3-(4-trifluoromethylphenoxy)propaneamine, oxalate] | 10.3 µg/mL
4 | FC(F)(F)c1ccc(OC(CCN2CCCCC2)c2ccc(Cl)s2)cc1.O=C(O)C(=O)O (stereo not shown) [Compound 15, 1-(3-(5-chloro-2-thienyl)-3-(4-trifluoromethylphenoxy)propyl)piperidine, oxalate] | 2.4 µg/mL
5 | N#Cc1cccc(OC(CCN2CCCCC2)c2ccc(Cl)s2)c1.O=C(O)C(=O)O (stereo not shown) [Compound 16, 1-(3-(5-chloro-2-thienyl)-3-(3-cyanophenoxy)propyl)piperidine, oxalate] | 12.0 µg/mL
6 | FC(F)(F)c1ccccc1OC(CCN1CCCCC1)c1ccc(Cl)s1.O=C(O)C(=O)O (stereo not shown) [Compound 17, 1-(3-(5-chloro-2-thienyl)-3-(2-trifluoromethylphenoxy)propyl)piperidine, oxalate] | 3.0 µg/mL
7 | FC(F)(F)c1cccc(OC(CCN2CCCCC2)c2ccc(Cl)s2)c1.O=C(O)C(=O)O (stereo not shown) [Compound 18, 1-(3-(5-chloro-2-thienyl)-3-(3-trifluoromethylphenoxy)propyl)piperidine, oxalate] | 7.3 µg/mL
8 | CSc1ccc(OC(CCN(C)C)c2ccc(Br)s2)cc1.O=C(O)C(=O)O (stereo not shown) [Compound 19, 3-(5-Bromo-2-thienyl)-N,N-dimethyl-3-(4-(methylthio)phenoxy)propanamine, oxalate] | 4.4 µg/mL
9 | CN(C)CCC(Oc1ccc(Oc2ccccc2)cc1)c1ccc(Br)s1.O=C(O)C(=O)O (stereo not shown) [Compound 21, 3-(5-Bromo-2-thienyl)-N,N-dimethyl-3-(4-phenoxyphenoxy)propanamine, oxalate] | 5.9 µg/mL
10 | CN(C)CCC(Oc1ccc(-c2ccccc2)cc1)c1ccc(Br)s1.O=C(O)C(=O)O (stereo not shown) [Compound 22, 3-(5-Bromo-2-thienyl)-N,N-dimethyl-3-(4-phenylphenoxy)propanamine, oxalate] | 4.4 µg/mL
11 | CN(C)CCC(Oc1ccc(C(F)(F)F)cc1)c1cccs1.O=C(O)C(=O)O (stereo not shown) [Compound 23, N,N-dimethyl-3-(2-thienyl)-3-(4-trifluoromethylphenoxy)propanamine, oxalate] | 8.6 µg/mL
12 | FC(F)(F)c1ccc(OC(CCN2CCCCC2)c2cccs2)cc1.O=C(O)C(=O)O (stereo not shown) [Compound 24, 1-(3-(2-Thienyl)-3-(4-trifluoromethylphenoxy)propyl)piperidine, oxalate] | 5.8 µg/mL
13 | CN(C)CCC(Oc1ccc(C(F)(F)F)cc1)c1ccsc1.Cl (stereo not shown) [Compound 27, N,N-dimethyl-3-(3-thienyl)-3-(4-trifluoromethylphenoxy)propanamine, hydrochloride] | 13 µg/mL

From patent publication EP0571685A1, “Aryloxyheteroarylpropylamines, their preparation and use” (NOVO NORDISK A/S, priority 1992, dated 1993)
